Reference: US11919901B2 (Syndax Pharmaceuticals, Inc., priority 2021, dated 2024)

Experiments:
hERG = hERG (Homo sapiens (Human), UniProt Q12809); assay: Patch clamp assay (hERG tail currents, whole-cell); assay type: cell-based; details: hERG transfected HEK 293 cells; for hERG % Remaining 10 μM: 10 μM compound; for hERG % Remaining 30 μM: 30 μM compound
Menin-MLL = Menin-MLL (Homo sapiens (Human), UniProt O00255); assay: Determination of binding constants (Ki) to Menin-MLL (HTRF); details: HTRF, 0.25 nM H-FL-Menin, 3.2 nM FITC-MLL-4-43, 24 hr incubation; for Ki: read-out: Menin-MLL Ki HTRF Assay: Ki
Sequence of Menin-MLL (O00255 whole entry): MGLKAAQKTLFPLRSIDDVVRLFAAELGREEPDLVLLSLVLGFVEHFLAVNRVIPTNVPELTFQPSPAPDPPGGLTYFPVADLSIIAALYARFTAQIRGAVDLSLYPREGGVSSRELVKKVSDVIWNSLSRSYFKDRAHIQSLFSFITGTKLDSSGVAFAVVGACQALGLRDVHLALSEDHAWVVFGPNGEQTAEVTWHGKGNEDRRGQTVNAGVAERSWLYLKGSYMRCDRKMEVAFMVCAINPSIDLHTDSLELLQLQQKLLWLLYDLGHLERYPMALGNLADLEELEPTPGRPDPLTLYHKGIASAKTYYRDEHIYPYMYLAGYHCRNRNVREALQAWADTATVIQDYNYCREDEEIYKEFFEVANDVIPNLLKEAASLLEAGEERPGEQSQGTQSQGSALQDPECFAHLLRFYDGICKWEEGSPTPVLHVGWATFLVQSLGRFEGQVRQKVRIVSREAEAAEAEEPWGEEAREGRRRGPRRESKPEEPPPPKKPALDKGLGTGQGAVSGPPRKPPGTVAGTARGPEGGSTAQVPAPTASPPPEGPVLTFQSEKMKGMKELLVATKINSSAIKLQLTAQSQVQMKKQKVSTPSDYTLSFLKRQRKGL

Sequence of hERG (Q12809 whole entry): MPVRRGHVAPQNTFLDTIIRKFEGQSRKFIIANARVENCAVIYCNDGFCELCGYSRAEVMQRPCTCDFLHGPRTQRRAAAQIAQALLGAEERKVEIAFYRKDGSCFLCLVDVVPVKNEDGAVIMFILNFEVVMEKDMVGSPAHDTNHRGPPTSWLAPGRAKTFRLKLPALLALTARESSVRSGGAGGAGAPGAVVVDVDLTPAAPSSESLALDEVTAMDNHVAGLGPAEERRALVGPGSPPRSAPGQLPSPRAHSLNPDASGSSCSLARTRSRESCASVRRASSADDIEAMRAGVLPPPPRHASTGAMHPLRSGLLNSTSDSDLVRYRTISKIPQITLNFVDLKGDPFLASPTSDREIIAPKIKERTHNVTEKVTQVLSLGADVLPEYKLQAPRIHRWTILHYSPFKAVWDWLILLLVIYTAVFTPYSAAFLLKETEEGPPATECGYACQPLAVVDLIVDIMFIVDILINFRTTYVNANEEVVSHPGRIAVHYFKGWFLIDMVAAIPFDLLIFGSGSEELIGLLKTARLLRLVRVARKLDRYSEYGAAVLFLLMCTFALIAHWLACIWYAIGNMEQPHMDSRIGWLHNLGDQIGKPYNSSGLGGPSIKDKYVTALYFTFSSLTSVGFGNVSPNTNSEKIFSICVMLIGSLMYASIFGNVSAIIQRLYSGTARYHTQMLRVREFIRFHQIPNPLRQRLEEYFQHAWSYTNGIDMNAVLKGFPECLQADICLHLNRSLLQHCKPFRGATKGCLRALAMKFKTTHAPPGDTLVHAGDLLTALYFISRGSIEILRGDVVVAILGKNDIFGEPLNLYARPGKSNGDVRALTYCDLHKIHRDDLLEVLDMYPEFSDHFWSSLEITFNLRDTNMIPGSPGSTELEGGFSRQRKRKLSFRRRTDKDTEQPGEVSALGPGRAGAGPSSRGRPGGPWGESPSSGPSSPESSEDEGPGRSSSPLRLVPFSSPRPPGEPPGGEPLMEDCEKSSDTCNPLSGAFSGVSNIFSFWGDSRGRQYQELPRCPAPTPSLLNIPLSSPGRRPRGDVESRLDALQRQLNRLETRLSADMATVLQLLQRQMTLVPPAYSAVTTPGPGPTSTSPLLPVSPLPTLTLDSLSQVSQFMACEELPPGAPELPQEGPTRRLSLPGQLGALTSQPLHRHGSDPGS

Compound | hERG % Remaining 10 μM (hERG) | hERG % Remaining 30 μM (hERG) | EC50 (Menin-MLL) [nM] | Ki (Menin-MLL) [nM] | IC50 (hERG) [nM]
CCN(C(=O)c1cc(F)ccc1Oc1cncnc1N1CC2(CCN(C[C@@H]3CC[C@@H](NS(=O)(=O)N4CCOCC4)CO3)CC2)C1)C(C)C [Compound 64, N-Ethyl-5-fluoro-N-isopropyl-2-((4-(7-(((2S,5R)-5-(morpholine-4-sulfonamido)tetrahydro-2H-pyran-2-yl)methyl)-2,7-diazaspiro[3.5]nonan-2-yl)pyrimidin-5-yl)oxy)benzamide] | +++ (“+++” means ≥66%) | ++ (“++” means ≥33% and <66%) | < 50 | < 1 | 
CCN(C(=O)c1cc(F)ccc1Oc1cncnc1N1CC2(CCN(C[C@@H]3CC[C@@H](NS(=O)(=O)c4ccccc4OC)CO3)CC2)C1)C(C)C [Compound 65, N-Ethyl-5-fluoro-N-isopropyl-2-((4-(7-(((2S,5R)-5-((2-methoxyphenyl)sulfonamido)tetrahydro-2H-pyran-2-yl)methyl)-2,7-diazaspiro[3.5]nonan-2-yl)pyrimidin-5-yl)oxy)benzamide] | ++ (“++” means ≥33% and <66%) | + (“+” means <33%) | < 50 | < 1 | 
CCN(C(=O)c1cc(F)ccc1Oc1cncnc1N1CC2(CCN(C[C@@H]3CC[C@@H](NS(=O)(=O)c4cccc(OC)c4)CO3)CC2)C1)C(C)C [Compound 66, N-Ethyl-5-fluoro-N-isopropyl-2-((4-(7-(((2S,5R)-5-((3-methoxyphenyl)sulfonamido)tetrahydro-2H-pyran-2-yl)methyl)-2,7-diazaspiro[3.5]nonan-2-yl)pyrimidin-5-yl)oxy)benzamide] | + (“+” means <33%) | + (“+” means <33%) | < 50 | < 1 | 
CCN(C(=O)c1cc(F)ccc1Oc1cncnc1N1CC2(CCN(C[C@@H]3CC[C@@H](NS(=O)(=O)c4cnn(C)c4)CO3)CC2)C1)C(C)C [Compound 68, N-Ethyl-5-fluoro-N-isopropyl-2-((4-(7-(((2S,5R)-5-((1-methyl-1H-pyrazole)-4-sulfonamido)tetrahydro-2H-pyran-2-yl)methyl)-2,7-diazaspiro[3.5]nonan-2-yl)pyrimidin-5-yl)oxy)benzamide] | +++ (“+++” means ≥66%) | +++ (“+++” means ≥66%) | < 50 | < 1 | ≥ 50000
CCN(C(=O)c1cc(F)ccc1Oc1cncnc1N1CC2(CCN(C[C@@H]3CC[C@@H](NS(=O)(=O)N4CCC4)CO3)CC2)C1)C(C)C [Compound 69, 2-((4-(7-(((2S,5R)-5-(Azetidine-1-sulfonamido)tetrahydro-2H-pyran-2-yl)methyl)-2,7-diazaspiro[3.5]nonan-2-yl)pyrimidin-5-yl)oxy)-N-ethyl-5-fluoro-N-isopropylbenzamide] | +++ (“+++” means ≥66%) | ++ (“++” means ≥33% and <66%) | < 50 | < 1 | 25000 to 50000
CCN(C(=O)c1cc(F)ccc1Oc1cncnc1N1CC2(CCN(C[C@@H]3CC[C@@H](NS(=O)(=O)c4csc(C)n4)CO3)CC2)C1)C(C)C [Compound 71, N-Ethyl-5-fluoro-N-isopropyl-2-((4-(7-(((2S,5R)-5-((2-methylthiazole)-4-sulfonamido)tetrahydro-2H-pyran-2-yl)methyl)-2,7-diazaspiro[3.5]nonan-2-yl)pyrimidin-5-yl)oxy)benzamide] | +++ (“+++” means ≥66%) | ++ (“++” means ≥33% and <66%) | < 50 | < 1 | 
CCN(C(=O)c1cc(F)ccc1Oc1cncnc1N1CC2(CCN(C[C@@H]3CC[C@@H](NS(=O)(=O)c4cnc(C)o4)CO3)CC2)C1)C(C)C [Compound 72, N-Ethyl-5-fluoro-N-isopropyl-2-((4-(7-(((2S,5R)-5-((2-methyloxazole)-5-sulfonamido)tetrahydro-2H-pyran-2-yl)methyl)-2,7-diazaspiro[3.5]nonan-2-yl)pyrimidin-5-yl)oxy)benzamide] | ++ (“++” means ≥33% and <66%) | + (“+” means <33%) |  | < 1 | 
CCN(C(=O)c1cc(F)ccc1Oc1cncnc1N1CC2(CCN(C[C@@H]3CC[C@@H](NS(=O)(=O)c4c[nH]c(=O)cc4C)CO3)CC2)C1)C(C)C [Compound 75, N-Ethyl-5-fluoro-N-isopropyl-2-((4-(7-(((2S,5R)-5-((4-methyl-6-oxo-1,6-dihydropyridine)-3-sulfonamido)tetrahydro-2H-pyran-2-yl)methyl)-2,7-diazaspiro[3.5]nonan-2-yl)pyrimidin-5-yl)oxy)benzamide] |  | +++ (“+++” means ≥66%) |  | < 1 | 
CCN(C(=O)c1cc(F)ccc1Oc1cncnc1N1CC2(CCN(C[C@@H]3CC[C@@H](NS(=O)(=O)NC)CO3)CC2)C1)C(C)C [Compound 76, N-Ethyl-5-fluoro-N-isopropyl-2-((4-(7-(((2S,5R)-5-((N-methylsulfamoyl)amino)tetrahydro-2H-pyran-2-yl)methyl)-2,7-diazaspiro[3.5]nonan-2-yl)pyrimidin-5-yl)oxy)benzamide] | +++ (“+++” means ≥66%) | +++ (“+++” means ≥66%) | < 50 | < 1 | 
CC(C)N(C(=O)c1cc(F)ccc1Oc1cncnc1N1CC2(CCN(C[C@@H]3CC[C@@H](NS(=O)(=O)N4CCOCC4)CO3)CC2)C1)C(C)C [Compound 78, 5-Fluoro-N,N-diisopropyl-2-((4-(7-(((2S,5R)-5-(morpholine-4-sulfonamido)tetrahydro-2H-pyran-2-yl)methyl)-2,7-diazaspiro[3.5]nonan-2-yl)pyrimidin-5-yl)oxy)benzamide] | +++ (“+++” means ≥66%) | +++ (“+++” means ≥66%) | < 50 | < 1 | 
Cc1ncc(S(=O)(=O)N[C@@H]2CC[C@@H](CN3CCC4(CC3)CN(c3ncncc3Oc3ccc(F)cc3C(=O)N(C(C)C)C(C)C)C4)OC2)o1 [Compound 80, 5-Fluoro-N,N-diisopropyl-2-((4-(7-(((2S,5R)-5-((2-methyloxazole)-5-sulfonamido)tetrahydro-2H-pyran-2-yl)methyl)-2,7-diazaspiro[3.5]nonan-2-yl)pyrimidin-5-yl)oxy)benzamide] | ++ (“++” means ≥33% and <66%) | + (“+” means <33%) |  | < 1 | 
Cc1nc(S(=O)(=O)N[C@@H]2CC[C@@H](CN3CCC4(CC3)CN(c3ncncc3Oc3ccc(F)cc3C(=O)N(C(C)C)C(C)C)C4)OC2)cs1 [Compound 81, 5-Fluoro-N,N-diisopropyl-2-((4-(7-(((2S,5R)-5-((2-methylthiazole)-4-sulfonamido)tetrahydro-2H-pyran-2-yl)methyl)-2,7-diazaspiro[3.5]nonan-2-yl)pyrimidin-5-yl)oxy)benzamide] | ++ (“++” means ≥33% and <66%) | ++ (“++” means ≥33% and <66%) |  | < 1 | 
